For one test, the system named is DCD-1L. Kind of test: Covalent labeling of DCD-1L peptide (fluorescent band on SDS-PAGE). In kind it is binding, human. The conditions noted are these: 50 μM; for fluorescent labeling of DCD-1L fragment: PBS pH 7.2, 5% DMSO, 23° C., 24 h (FIG. 5E). An excerpt:
FIGS. 5A-5E: Seriniquinone (1) targets dermcidin (DCD). […] Sequence listing (FIG. 5B): […] (SEQ ID NO:3); […] (SEQ ID NO:4).
The reactivity between 1 and DCD was then examined. […] These studies now provided initial support for the formation of a unique trimeric covalent adduct, compound 15, between 1, DCD and targeted proteins such as GADPH.

In test [1] the test system is HCT-116 cells. Description: Cytotoxicity analysis (MTT/MTS) in HCT-116 colon carcinoma cells. The settings on record: Homo sapiens. Format: cell-based, human. An excerpt: Fortunately, 1 was fluorescent with excitation maxima at 250 nm (ε=20,800 cm^−1M^−1), 289 nm (ε=24,000 cm^−1M^−1) and 342 nm (ε=6900 cm^−1M^−1) and a broad emission from 490-680 nm. Using confocal microscopy, red and green fluorescence from 1 appeared in HCT-116 cells within minutes of addition (FIG. 3A). […] Time course confocal imaging studies were then combined with conventional activity MTT assays^6 to provide a detailed correlation between cellular localization and cytostatic activity.
HCT-116 colon carcinoma cells were plated in 96-well plates at 2.5×10^4 cells/well. After 24 h, the cultures were treated with a single concentration seriniquinone (1) within the range of 0.02-20.0 μM, etoposide (positive control) in the range of 0.05-50 μM or 1% DMSO (negative control). The cells were incubated for either 24 h, 48 h or 72 h. At the end of the incubation period, cultures were added with 3-(4,5-dimethylthiazol-2-yl)-5-(3-carboxymethoxyphenyl)-2-(4-sulfophenyl)-2H-tetrazolium (MTS) for 3 h. Cell viability was quantified by the ability of living cells to reduce the yellow MTS dye to a purple formazan product. Time course experiments were also conducted in HCT-116 cells. Cells were exposed to 1 over short periods (1 h, 3 h, 6 h, and 9 h) followed by incubation in drug-free media to complete a total of 24 h incubation before addition of MTS.

The target of another test is T1, dermcidin (DCD) (Homo sapiens, UniProt P81605).
T1 construct: endogenous in cells; host or cells: HCT-116 cell lysate
T1 sequence (P81605 20-110): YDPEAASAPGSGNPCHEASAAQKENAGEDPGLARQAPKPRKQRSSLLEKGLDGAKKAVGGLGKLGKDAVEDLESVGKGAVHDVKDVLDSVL
Kind of test: Immunoprecipitation with IAF probe and LC-MS/MS target identification. In kind it is binding. The conditions noted are these: HCT-116 cell lysates, iodoacetamide treatment. The method, then:
Using established protocols,^13 HCT-116 cell lysates were treated for 8 h with probe 13 and immunoprecipitated with resins bearing a covalently-attached anti-IAF mAb.^14 Over multiple repetitions, a series of proteins ranging from 30-250 kDa were obtained in a manner dependent on the concentration probe 13 (FIG. 5A). […] Trypsin digestion coupled with LC-MS/MS analyses was then applied to identify the proteins in the more abundant bands. […] In addition to peptides from GADPH, peptides were also found in the 50 kDa band (b1, FIG. 5A) that corresponded to the 30 aa PIF core, 13 aa propeptide, and 47 aa DCD-1 peptide region of dermcidin (DCD) (FIG. 5B).
Interested if this was the case in this experimentation, the immunoprecipitated fractions were treated with 5 mM iodoacetamide prior to gel analysis. As indicated (Lane L1, FIG. 5C), a low molecular weight band corresponding to DCD appeared.
An 1 mg/mL stock of probe 14a/14b in DMSO solution was added to 1 mL of cell lysate containing ˜1 mg/mL in net protein to provide a net concentration of 3 μM 14a/14b or 30 μM 14a/14b. […]
Silver Stained bands were excised from the polyacrylamide gel and destained. […] General procedure was using in-gel trypsin digest and then the trypsin-digested peptides were analyzed by liquid chromatography LC-MS/MS with electrospray ionization. […]

Test [2] concerns HCT-116 cells. Kind of test: Confocal microscopy subcellular localization. Format: cell-based, human. The settings on record: confocal imaging with counterstains. The procedure:
Confocal studies were conducted on a LSM 710 inverted confocal microscope (Zeiss) with scanning module with 3 detection channels, Plan-Apochromat 63×/1.4 na objective, diode laser (405 nm, CW pulsed, 30 mW), Ar-laser (458 nm, 488 nm, 514 nm, 25 mW), HeNe-laser (543 nm, 1 mW) and HeNe-laser (633 nm, 5 mW). For all procedures, cells were seeded 24 h prior to treatment, to allow for adequate attachment to the well or flask bottom. Cells were plated in glass-bottom dishes (MatTek Corporation) for microscopic analyses at 1×10^5 cells/mL. Compounds were added to cells under 1 mL of media from […] such that the DMSO content remained under 0.1%. […]
Colocalization studies were conducted by treating cells (HCT-116 or MALME-3M) at a density of 1×10^5 cells/cm^2 in a 35 mm glass-bottom dish (MatTek Corporation). […] After 30 min, cells were washed PBS (4×1 mL) and immediately analyzed by confocal microscope. […] The localization of seriniquinone (1) was acquired by red fluorescence with emission at 550-631 nm, while the ER-tracker was acquired by blue florescence with emission at 406-450 nm. […] After 15 min, cells were washed PBS (4×1 mL) and immediately analyzed by confocal microscope. […] The localization of seriniquinone (1) was acquired by red fluorescence with emission at 550-631 nm, while the ER-tracker was acquired by blue florescence with emission at 415-530 nm.

Test [3] relates to HCT-116 cells. Kind of test: Cell cycle and DNA fragmentation analysis (FACS / ImageStream). Format: cell-based, human. The method, then:
Cell cycle was analyzed by the ImageStream® cell analysis system (Amnis). Briefly, HCT-116 cells (1×10^5 cells/mL) were seeded in 24-well plates, and 24 h later, 0.3 μM 1, 3 μM 1, 30 μM 1 or 17 μM etoposide (positive control) or 1% DMSO (negative control) was added to the cultures. After 18 h or 24 h incubation, cells were recovered by treatment with 0.05% trypsin-EDTA solution (GIBCO-BRL). An 100 μL aliquot of these cells were incubated for 30 min in the dark with a hypotonic solution containing 50 μg/mL propidium iodide, 0.1% sodium citrate, and 0.1% Triton X-100. Fluorescence was measured and DNA fragmentation and cell cycle were analyzed using ModFit LT for Win32 version 3.1.

The next test concerns NCI-60 cell line. Description: NCI-60 cell line screen. In kind it is cell-based. The conditions noted are these: Homo sapiens; mean over NCI-60 panel. The procedure: (§1) This was further supported by the fact that 1 enhanced activity in melanoma cell lines with maximum activity against MALME-3M cells (GI50 value of 60 nM). With this in hand, chemical biological methods were applied to further probe this biological response.

Test [4] concerns HCT-116 cells. Description: Western blot analysis of cell cycle, apoptotic and autophagy markers. Format: cell-based, human. The method, then: HCT-116 cells (1×10^6 cells/mL) were seeded in 75 cm^2 cell culture flasks and, 24 h later, treated with 3 μM 1, 30 μM 1, 17 μM etoposide (positive control), or 0.3% DMSO (negative control). After 24 h incubation, cells were washed in PBS, harvested and lysed in RIPA buffer. Protein extracts were quantified by an adapted micro-method of the Lowry assay using the DC Protein Assay kit (BioRad Laboratories). Equal amounts of protein (30 μg) from each treatment were fractionated using SDS-PAGE 5-15% gel and transferred to a PVDF membrane (BioRad Laboratories). The membranes were incubated overnight at 4° C. with primary antibodies for caspase-3, cleaved caspase-3, caspase 7, cleaved caspase-7, caspase-9, cleaved caspase-9, PARP, cleaved PARP, cyclin A, cyclin B1, cyclin D1, cyclin D3, cyclin D3, cyclin E1, cyclin E2, LC3A, LC3B or dermcidin (Santa Cruz Biotech). β-actin (Abcam) was used to normalize protein loading. After washing with TBS containing 0.1% Tween-20, the membranes were incubated with the appropriate secondary antibody alkaline phosphatase conjugate (Cell Signaling Technology Inc.), followed by BCIP/NBT color development substrate (Perkin-Elmer).

In another test the test system is DNA. Kind of test: In vitro DNA fragmentation assays. In kind it is biochemical.
Another test deals with MALME-3M cells. Description: NCI-60 cell line screen, melanoma line MALME-3M. Format: cell-based. The settings on record: Homo sapiens, maximum activity in the panel. The method, then:
as §1

Where two headings read alike, the source gives them in different places.

`CN(C)c1ccc2c(CC(=O)NCCCCCCNC(=O)CCc3ccc4c(=O)c5c(sc6c(=O)c7ccccc7c(=O)c65)c(=O)c4c3)cc(=O)oc2c1` [Probe 13, N-(6-(2-(7-(dimethylamino)-2-oxo-2H-chromen-4-yl)acetamido)hexyl)-3-(5,7,12,13-tetraoxo-5,7,12,13-tetrahydrodinaphtho[2,3-b:2′,3′-d]thiophen-3-yl)propanamide]: the “fluorescent labeling of DCD-1L fragment” value in the test on DCD-1L is “fluorescent bands corresponding to DCD-1L”. Moreover, the IC50 in the test on HCT-116 cells [1] (HCT-116 cells, read-out: IC50) was 250 ± 80 nM. Moreover, the “protein target identified by immunoprecipitation” value at dermcidin (DCD) was “DCD was indeed a primary target”. In addition, in the test with HCT-116 cells [2], the subcellular localization result is recorded as “rapid uptake in the ER followed by transport into autophagosomes”.

As for `O=c1c2ccccc2c(=O)c2c1sc1c(=O)c3ccccc3c(=O)c12` [Compound 1, dinaphtho[2,3-b:2′,3′-d]thiophene-5,7,12,13-tetraone], in the test on DCD-1L (37° C., 24 h), the “covalent labeling of DCD-1L” value was “covalently label DCD-1L”. For the same compound, the “fluorescent labeling of DCD-1L fragment” value in the test on DCD-1L is given as “fluorescent bands corresponding to DCD-1L”. In the test on HCT-116 cells [3], the “DNA fragmentation (cells with subdiploid DNA)” value was “concentration dependent DNA fragmentation” and the “cell cycle phase of remaining cells” value is “S to G2 phase”. Further, the IC50 with HCT-116 cells [1] (HCT-116, Table 1, read-out: HCT 116 IC50) is 350 nM. For the same compound, the IC50 in the test with HCT-116 cells [1] (HCT-116 cells treated over 24 h period, MTT assay, read-out: IC50) stood at 640 ± 60 nM. Besides, in the test with NCI-60 cell line, the 50% growth inhibitory concentration (GI50) turned out to be 910 nM and the LC50 (concentration giving 50% cell kill) is 18600 nM. The “cleavage of caspases and PARP” value in the test on HCT-116 cells [4] (HCT-116 cells) is “induced cleavage of caspases 3, 7 and 9 PARP”. In the test on HCT-116 cells [4] (HCT-116 cells, 24 h), the “induction of autophagy (LC3A/LC3B conversion, Western blot)” value is “induced autophagy”. Further, the cyclin expression entry in the test on HCT-116 cells [4] (HCT-116 treated cells) was “strong reduction in the expression of the cyclins D1, D2 and D3”. Further, the subcellular localization result in the test on HCT-116 cells [2] was “appeared soon after treatment in the ER”. Also, the “DNA fragmentation in vitro” value with DNA is reported as “failed to induce DNA fragmentation”. Besides, in the test with MALME-3M cells, the GI50 was 60 nM.
